Data set [1] relates to Phytophthora infestans. Nature of the data set: whole plant or invertebrate. The class given is in vivo. Particulars: in Solanum lycopersicum, foliar, read-out: inhibit fungal infestation.
Data set [2] concerns Pythium ultimum. In words: Pythium ultimum/Liquid Culture (Seedling Damping Off). In kind it is cell-based. Conditions: Globisporangium ultimum, read-out: inhibit fungal infestation.
In data set [3] the test system is Blumeria graminis f. Sp. tritici (Erysiphe graminis f. Sp. tritici). In words: Blumeria graminis f. Sp. tritici (Erysiphe graminis f. Sp. tritici)/Wheat/Leaf Disc Preventative (Powdery Mildew on Wheat). Conditions: foliar, read-out: inhibit fungal infestation. The class given is in vivo.
For data set [4], the system named is Plasmopara viticola. In words: whole plant or invertebrate. The class given is in vivo. Conditions: foliar, read-out: inhibit fungal infestation.
The mark [5] stands for this setting: 200 ppm, liquid culture (PDB), 24° C., growth inhibition photometrically 2-3 days after application.
Where [6] appears, read: 200 ppm, wheat leaf segments cv. Kanzler, preventative, 6-8 days after application, untreated control infected to over 80%.

Where two headings read alike, the source gives them in different places.

As for `CCC(Oc1ccc2ncc(OC)cc2c1)C(=O)NC(C)(C#N)COC` (stereo not drawn), the melting point – broadly, the temperature of the solid-liquid transition – lay in the range of 122 to 124 °C.
`CCC(Oc1cc(C)c2ncc(SC)cc2c1)C(=O)NC(C)(C)C` (stereo not drawn): the melting point lay within 119 to 121 °C.
The same measure, in the same setting: for `CCC(Oc1cc(C)c2ncc(SC)cc2c1)C(=O)NC1CCC1` (stereo not drawn) the value was 136 to 138 °C; for `CCC(Oc1cc(C)c2ncc(SC)cc2c1)C(=O)NC(C)C` (stereo not drawn), 132 to 134 °C.
The same measure, in the same setting: under `C#CC(C)(C)NC(=O)C(CC)Oc1cc(Cl)c2ncc(SC)cc2c1` (stereo not drawn) stands 140 to 142 °C; under `CCC(Oc1cc(Cl)c2ncc(SC)cc2c1)C(=O)NC(C)C` (stereo not drawn), 143 to 145 °C.
On the same count and under the same terms, under `CCC(Oc1cc(Cl)c2ncc(SC)cc2c1)C(=O)NC(C)(C)C` (stereo not drawn) stands 134 to 136 °C.
Consider `COC(Oc1cc(C)c2ncc(SC)cc2c1)C(=O)NC(C)(C)C` (stereo not drawn), for which the melting point lay within 146 to 148 °C.
For `COC(Oc1cc(C)c2ncc(SC)cc2c1)C(=O)NC1CCC1` (stereo not drawn), the melting point is 132 to 134 °C.
On the same count and under the same terms, for `C#CC(C)(C)NC(=O)C(OC)Oc1cc(C)c2ncc(SC)cc2c1` (stereo not drawn) the value was 124 to 127 °C; for `C#CC(C)(C)NC(=O)C(OC)Oc1cc(Cl)c2ncc(SC)cc2c1` (stereo not drawn), 116 to 118 °C.
In turn, `COC(Oc1cc(Cl)c2ncc(SC)cc2c1)C(=O)NC(C)(C)C` (stereo not drawn) showed a melting point of 125 to 127 °C.
On the same count and under the same terms, for `COC(Oc1cc(Cl)c2ncc(SC)cc2c1)C(=O)NC1CCC1` (stereo not drawn) the value was 128 to 130 °C.
Still for that read-out and setting: for `COC(Oc1cc(Cl)c2ncc(SC)cc2c1)C(=O)NC1(C)CCC1` (stereo not drawn) the value was 113 to 115 °C; for `COCC(C)(C#N)NC(=O)C(OC)Oc1cc(Cl)c2ncc(SC)cc2c1` (stereo not drawn), 90 to 93 °C.
Still for that read-out and setting: under `C#CC(C)(C)NC(=O)C(OC)Oc1ccc2ncc(SC)cc2c1` (stereo not drawn) stands 123 to 125 °C.
Molecule `COC(Oc1ccc2ncc(SC)cc2c1)C(=O)NC1(C)CCC1` (stereo not drawn) gave a melting point of 100 to 102 °C.
With `CO/N=C/C(C)(C)NC(=O)C(Oc1ccc2ncc(OC)cc2c1)SC` (stereo not drawn) [Compound 1, N-(2-Methoxyimino-1,1-dimethyl-ethyl)-2-(3-methoxy-quinolin-6-yloxy)-2-methylsulfanyl-acetamide], the melting point fell in the range of 122 to 124 °C. For the same molecule, the inhibition at 200 ppm in data set [1] is not below 80%. The inhibition at 200 ppm in data set [2] (setting [5]) is not below 80%. Also, in data set [3] (setting [6]), the inhibition at 200 ppm was not below 80%.
`COCC(C)(C#N)NC(=O)C(Oc1ccc2ncc(OC)cc2c1)SC` (stereo not drawn) [Compound 3, N-(1-Cyano-2-methoxy-1-methyl-ethyl)-2-(3-methoxy-quinolin-6-yloxy)-2-methylsulfanyl-acetamide] gave a melting point of 75 to 77 °C. In addition, in data set [2] (setting [5]), the inhibition at 200 ppm was not below 80%. The inhibition at 200 ppm in data set [3] (setting [6]) is not below 80%.
Molecule `CCC(Oc1ccc2ncc(OC)cc2c1)C(=O)NC(C)(C)/C=N/OC` (stereo not drawn) [Compound 6, N-(2-Methoxyimino-1,1-dimethyl-ethyl)-2-(3-methoxy-quinolin-6-yloxy)-butyramide] gave a melting point of 87 to 89 °C. For the same molecule, the inhibition at 200 ppm in data set [2] (setting [5]) was not below 80%. Besides, the inhibition at 200 ppm in data set [3] (setting [6]) was not below 80%.
In the case of `C#CC(C)(C)NC(=O)C(OC)Oc1ccc2ncc(OC)cc2c1` (stereo not drawn) [Compound 9, N-(1,1-Dimethyl-prop-2-ynyl)-2-methoxy-2-(3-methoxy-quinolin-6-yloxy)-acetamide], the melting point lay within 124 to 127 °C. In data set [3] (setting [6]), the inhibition at 200 ppm was not below 80%.
The molecule `CCC(Oc1ccc2ncc(OC)cc2c1)C(=O)NC(C)(C)C` (stereo not drawn) [Compound 12, N-tert-Butyl-2-(3-methoxy-quinolin-6-yloxy)-butyramide] registered a melting point of 131 to 133 °C. In addition, in data set [1], the inhibition at 200 ppm was not below 80%. For the same molecule, in data set [2] (setting [5]), the inhibition at 200 ppm was not below 80%.
`CCOc1cnc2c(C)cc(OC(SC)C(=O)NC(C)(C)C)cc2c1` (stereo not drawn) [Compound 20, N-tert-Butyl-2-(3-ethoxy-8-methyl-quinolin-6-yloxy)-2-methylsulfanyl-acetamide] showed a melting point of 181 to 183 °C. Further, the inhibition at 200 ppm in data set [2] (setting [5]) is not below 80%.
With `CC#CC(C)(C)NC(=O)C(Oc1cc(C)c2ncc(OCC)cc2c1)SC` (stereo not drawn) [Compound 24, N-(1,1-Dimethyl-but-2-ynyl)-2-(3-ethoxy-8-methyl-quinolin-6-yloxy)-2-methylsulfanyl-acetamide], the melting point fell in the range of 137 to 139 °C. Moreover, the inhibition at 200 ppm in data set [4] was not below 80%. For the same molecule, in data set [2], the inhibition at 200 ppm was not below 80%. The inhibition at 200 ppm in data set [3] is not below 80%.
Regarding `CCC(Oc1ccc2ncc(SC)cc2c1)C(=O)NC(C)C` (stereo not drawn) [Compound 28, N-Isopropyl-2-(3-methylsulfanyl-quinolin-6-yloxy)-butyramide], the melting point lay within 112 to 115 °C. The inhibition at 200 ppm in data set [2] (setting [5]) is not below 80%.
Take `CO/N=C/C(C)(C)NC(=O)C(Oc1cc(Cl)c2ncc(SC)cc2c1)SC` (stereo not drawn) [Compound 31, 2-(8-Chloro-3-methylsulfanyl-quinolin-6-yloxy)-N-(2-methoxyimino-1,1-dimethyl-ethyl)-2-methylsulfanyl-acetamide]: the melting point fell in the range of 168 to 170 °C. In addition, the inhibition at 200 ppm in data set [4] was not below 80%. Moreover, the inhibition at 200 ppm in data set [2] (setting [5]) was not below 80%.
With `CCC(Oc1cc(Cl)c2ncc(SC)cc2c1)C(=O)NC(C)(C)/C=N/OC` (stereo not drawn) [Compound 39, 2-(8-Chloro-3-methylsulfanyl-quinolin-6-yloxy)-N-(2-methoxyimino-1,1-dimethyl-ethyl)-butyramide], the melting point was in the range of 119 to 121 °C. Also, the inhibition at 200 ppm in data set [4] is not below 80%.
Taken in the same sequence, the figures for `CO/N=C/C(C)(C)NC(=O)C(OC)Oc1cc(C)c2ncc(SC)cc2c1` (stereo not drawn) [Compound 43, 2-Methoxy-N-(2-methoxyimino-1,1-dimethyl-ethyl)-2-(8-methyl-3-methylsulfanyl-quinolin-6-yloxy)-acetamide] were 109 to 111 °C and not below 80%.
Taken in the same sequence, the figures for `CC#CC(C)(C)NC(=O)C(OC)Oc1cc(C)c2ncc(SC)cc2c1` (stereo not drawn) [Compound 46, N-(1,1-Dimethyl-but-2-ynyl)-2-methoxy-2-(8-methyl-3-methylsulfanyl-quinolin-6-yloxy)-acetamide] were 102 to 104 °C and not below 80%.
The molecule `CO/N=C/C(C)(C)NC(=O)C(OC)Oc1cc(Cl)c2ncc(SC)cc2c1` (stereo not drawn) [Compound 47, 2-(8-Chloro-3-methylsulfanyl-quinolin-6-yloxy)-2-methoxy-N-(2-methoxyimino-1,1-dimethyl-ethyl)-acetamide] came in with a melting point of 121 to 123 °C. In addition, the inhibition at 200 ppm in data set [4] was not below 80%. In addition, the inhibition at 200 ppm in data set [3] (setting [6]) is not below 80%.
Molecule `CC#CC(C)(C)NC(=O)C(OC)Oc1cc(Cl)c2ncc(SC)cc2c1` (stereo not drawn) [Compound 48, 2-(8-Chloro-3-methylsulfanyl-quinolin-6-yloxy)-N-(1,1-dimethyl-but-2-ynyl)-2-methoxy-acetamide] displayed a melting point of 90 to 92 °C. In addition, in data set [4], the inhibition at 200 ppm is not below 80%.
Regarding `COCC#CC(C)(C)NC(=O)C(OC)Oc1cc(Cl)c2ncc(SC)cc2c1` (stereo not drawn) [Compound 49, 2-(8-Chloro-3-methylsulfanyl-quinolin-6-yloxy)-2-methoxy-N-(4-methoxy-1,1-dimethyl-but-2-ynyl)-acetamide], the melting point fell in the range of 85 to 87 °C. Also, the inhibition at 200 ppm in data set [4] was not below 80%.
`COC(Oc1cc(Cl)c2ncc(SC)cc2c1)C(=O)NC(C)C` (stereo not drawn) [Compound 52]: the melting point was in the range of 115 to 118 °C. Further, in data set [3] (setting [6]), the inhibition at 200 ppm is not below 80%.
As for `CO/N=C/C(C)(C)NC(=O)C(OC)Oc1ccc2ncc(SC)cc2c1` (stereo not drawn) [Compound 56, 2-Methoxy-N-(2-methoxyimino-1,1-dimethyl-ethyl)-2-(3-methylsulfanyl-quinolin-6-yloxy)-acetamide], the melting point was 98 to 100 °C. For the same molecule, the inhibition at 200 ppm in data set [1] is not below 80%. In addition, in data set [2] (setting [5]), the inhibition at 200 ppm was not below 80%.
`CC#CC(C)(C)NC(=O)C(OC)Oc1ccc2ncc(SC)cc2c1` (stereo not drawn) [Compound 57, N-(1,1-Dimethyl-but-2-ynyl)-2-methoxy-2-(3-methylsulfanyl-quinolin-6-yloxy)-acetamide] came in with a melting point of 63 to 65 °C. Besides, the inhibition at 200 ppm in data set [3] was not below 80%.
Taken in the same sequence, the figures for `COCC#CC(C)(C)NC(=O)C(OC)Oc1ccc2ncc(SC)cc2c1` (stereo not drawn) [Compound 58, 2-Methoxy-N-(4-methoxy-1,1-dimethyl-but-2-ynyl)-2-(3-methylsulfanyl-quinolin-6-yloxy)-acetamide] were 74 to 76 °C and not below 80%.
In turn, `COC(Oc1ccc2ncc(SC)cc2c1)C(=O)NC(C)(C)C` (stereo not drawn) [Compound 60, N-tert-Butyl-2-methoxy-2-(3-methylsulfanyl-quinolin-6-yloxy)-acetamide] returned a melting point of 119 to 121 °C. Also, the inhibition at 200 ppm in data set [3] (setting [6]) is not below 80%.
Taken in the same sequence, the figures for `COC(Oc1ccc2ncc(SC)cc2c1)C(=O)NC1CCC1` (stereo not drawn) [Compound 61, N-Cyclobutyl-2-methoxy-2-(3-methylsulfanyl-quinolin-6-yloxy)-acetamide] were 80 to 82 °C and not below 80%.
`CCOCC(C)(C)NC(=O)C(Oc1ccc2ncc(SC)cc2c1)SC` (stereo not drawn) [Compound 66, N-(2-Ethoxy-1,1-dimethyl-ethyl)-2-methylsulfanyl-2-(3-methylsulfanyl-quinolin-6-yloxy)-acetamide]: in data set [3] (setting [6]), the inhibition at 200 ppm is not below 80%.
Turning to `CSc1cnc2ccc(OC(SC)C(=O)NC(C)(C)CCF)cc2c1` (stereo not drawn) [Compound 67, N-(3-Fluoro-1,1-dimethyl-propyl)-2-methylsulfanyl-2-(3-methylsulfanyl-quinolin-6-yloxy)-acetamide], the inhibition at 200 ppm in data set [4] and in data set [3] (setting [6]) was not below 80% throughout.
